Data reported in patent US5882881A, “Inhibition of cyst formation by cytoskeletal specific drugs” (priority 1998, dated 1999).

Experiments:
[1] = tested on: Murine CPK Cells; experiment: In vitro cyst formation and cyst size in suspension culture of murine CPK cells; type: cell-based, mouse
Description: At 10, 21 and 28 days after birth, mice having congenital polycystic kidney disease (CPK) and their phenotypically normal littermates were sacrificed by cervical dislocation. Kidneys were harvested aseptically and washed with DMEM/F12 (Sigma Chemical Co., St. Louis, Mo.) in a 1:1 mix. Each decapsulated kidney was chopped into cubes (1 mm) and incubated in 5 ml of collagenase solution composed of 1 mg/ml collagenase type IV (Worthington Biochemical Corporation, Freehold, N.J.), 1 mg/ml egg white trypsin inhibitor (Worthington) in 1:1 DMEM/F12.
The top 12 mls, which contained both single cells and aggregates of up to 10 cells, as assessed by inverted phase-ontrast microscopy, were placed in 2 ml aliquots in the wells of plastic culture plates (Corning, N.Y.) precoated with 1% agarose in DMEM:F12 (2 ml in each well of a 6-well plate; 1 ml in each well of a 24-well plate). Cell samples were digested with further incubation for 10 minutes in 0.05% trypsin and 0.53 mM EDTA (Gibco, BRL Gaithesburg, Md.) at 37° C. All cultures were plated at a final density of 1-3×10^4 cell, per well. For growth studies of monolayer cells, identical preparations were grown on the plastic surface of the culture plates. Both the monolayers and the cell suspensions were incubated at 37° C. in a moisture saturated incubator in 5% CO2 and air.
I used the in vitro cyst formation system of the present invention to analyze compounds that affect the process of cyst formation. To determine the therapeutic effectiveness of an agent, cyst-forming cells are suspended in a medium to which the agent has been added. These cells are then cultured on a solid phase without formation of a layer of cells on the surface, such as in the assay system described in Example 1. The extent to which the cells actually form cysts can be detected and compared to the extent of cyst formation expected if no agent were added. If the amount of cyst formation is lower than expected, then the agent is a good candidate for therapeutic intervention of cystic diseases.
(§1) The effects of various metabolic inhibitors on cyst formation were studied in cultures derived from day 21 postnatal CPK mice. […] Taxol (25 μM), a microtubule specific inhibitor, was from Calbiochem (La Jolla, Calif.). All other chemicals were obtained from Sigma Chemical Co. Cytosine arabinoside was added at the final concentration of 20 μg/ml to inhibit DNA synthesis; α-amanitin at 100 ng/ml to inhibit RNA synthesis; cycloheximide at 40 μg/ml to inhibit protein synthesis; amiloride at 1 mM to inhibit the renal epithelial Na^+ -H^+ exchange; ouabain at 0.5 mM to inhibit Na^+ -K^+ -ATPase; brefeldin-A at 10 μg/ml to inhibit transport of surface proteins; griseofulvin at 350 μM to inhibit microtubule function; colchicine at 10 μM to inhibit microtubule polymerization; and cytochalasin-B and cytochalasin-D at 10 μM to depolymerize actin filaments.
(§2) In the presence of these metabolic inhibitors in vitro, cyst formation was noted to be either present or absent; if present, the diameters of 20 cysts from a 0.2 ml aliquot were measured. In the same samples, ^3 H-dThd incorporation was also measured as described above. […] After each wash, cell clusters were collected by centrifuging at 200×g for 1 minute and the supernatant discarded. Washed cell clusters were resuspended in the original volume of growth medium without inhibitors, placed in agarose coated wells and incubated at 37° C. in a moisture saturated incubator in 5% CO2 and air.
(§3) In this table, the mean cyst size is reported as ±SD with a measurement of twenty cysts. The ^3 H-dThd incorporation is reported as ±SD using measurements of three wells. The * indicates […] versus control. […] The entries listed as "NA" in the table indicate data that is not available.

[2] = tested on: Murine CPK Cells; experiment: 3H-thymidine incorporation (DNA synthesis) in CPK cell suspension culture; type: cell-based, mouse; details: ± SD, three wells; concentrations as in Table II; control 100 ± 11; 1440 min
Description: Growth studies were performed on kidney cells derived from day 10, 21 and 28 postnatal CPK mice and their normal littermates. Immediately after cells were placed in suspension or monolayer culture, 3 μCi of ^3 H-thymidine (^3 H-dThd, specific activity 45 Ci/mmol, Amersham, Ill.) was placed in each well of the culture plate. DNA synthesis was assessed by incorporation of ^3 H-dThd over the 24 hours of culture, and trichloroacetic acid-insoluble. radioactivity was expressed as cpm/μg protein. Protein was assayed with the BCA reagent as described by the manufacturer (Pierce, Rockford, Ill.). At 24 hours of culture, an aliquot (0.2 ml) of the suspension was removed and the number of cysts counted using an inverted microscope. The number of cysts was expressed as a ratio factored for the total number of cells in the suspension at 24 hours of culture. Cyst diameter was measured at 100× using an eyepiece micrometer.
as §1, §2, §3

[3] = tested on: cpk mice; experiment: Growth and survival of cpk mice treated with taxol or methotrexate (FIG. 3B); type: in vivo, mouse
Text: […]. The body weights of untreated, taxol treated and methotrexate treated C57BL/6j mice between day 10 and day 45 after birth is shown in A. The body weights of untreated, taxol treated and methotrexate treated cpk mice are shown in B. Results in each group are the mean of 6 animals. Untreated and methotrexate treated cpk mice died between days 26 and 28. […].
In a related procedure I treated both normal C57BL/6 and cpk mice at 11-14 days of age with either taxol or methotrexate as described above. Six untreated mice served as controls in this experiment.

[4] = tested on: cpk mice kidney; type: in vivo, mouse; details: weekly taxol for 200 days
Description: […]. Untreated and methotrexate (MTX) treated polycystic cpk mice all died before 30 days of age. […]. The dotted line starting at day 120 indicates the number and age of apparently healthy taxol treated polycystic mice that were sacrificed for histology studies. Pairs of mice were sacrificed at 120 days, 182 days and 210 days of age.
Eleven homozygous cpk mice, raised and identified as in Example 6 were treated with 15 μl of 10 mg/ml taxol in DMSO through intraperitoneal injection beginning 11-14 days after birth. Following the first treatment, the mice were administered with the same treatment once every week thereafter. As controls, 6 cpk mice were treated with 15 μl intraperitoneal injections of DMSO beginning 10-12 days after birth and then once every week thereafter.

[5] = tested on: Murine CPK Cells; experiment: In vitro cyst formation and cyst size in suspension culture of murine CPK cells; type: cell-based, mouse; details: day 21, 24 h, final concentration per Table II (cytosine arabinoside 20 μg/ml, α-amanitin 100 ng/ml, cycloheximide 49 μg/ml, ouabain 1 mM, amiloride 1 mM, brefeldin-A 10 μg/ml, griseofulvin 350 μM, colchicine 10 μM, vinblastine 1 μM, nocodazole 30 μM, taxol 25 μM, cytochalasins 10 μM)

CC(=O)O[C@H]1C(=O)[C@@]2(C)[C@H]([C@H](OC(=O)c3ccccc3)[C@]3(O)C[C@H](OC(=O)[C@H](O)[C@@H](NC(=O)c4ccccc4)c4ccccc4)C(C)=C1C3(C)C)[C@]1(OC(C)=O)CO[C@@H]1C[C@@H]2O [Taxol]
Cyst Size ([1]; mean ± SD of twenty cysts, concentrations as in Table II, control 71 ± 22): 0 μm | cyst formation (in words) ([1]; murine CPK cells, 24 h suspension culture, ouabain 0.5 mM, also 1 mM, b155 taxol 25 μM, colchicine 10 μM, vinblastine 1 μM, cytochalasins 10 μM, model species not given): reversibly inhibited in vitro cyst formation in both models | ^3 H-dThd Incorporation [2]: 90 ± 11 % control | average survival ([3]; FIG. 3, mean of 6 animals): 45 ± 2 days | weight gain (in words) ([3]; cpk mice, versus DMSO or methotrexate): gained weight at substantially the same or lower rate | lifespan (in words) ([3]; versus DMSO or methotrexate-treated mice): substantially longer lifespans | kidney histology of control mice [4]: normal kidney histology | Cyst Formation (+/-) [5]: -
